Source: patent US10617674B2, “Dosage regimen for the treatment of acute exacerbations of inflammatory conditions” (MEREO BIOPHARMA 1 LIMITED, priority 2016, dated 2020)

What was measured:
p38a = p38a (Homo sapiens, UniProt Q16539); experiment: p38a kinase K (Ki) and IC50 values; type: biochemical
p3813 = p3813 (Homo sapiens, UniProt Q15759); experiment: p3813 kinase K (Ki) and IC50 values; type: biochemical
[1] = PK profile of the Day 1, 3 and 5 oral dosing regimen (drug levels); type: in vivo, human
Excerpt: This study investigated the efficacy, safety and tolerability of two different dosing regimens of 3-[5-amino-4-(3-cyanobenzoyl)-pyrazol-1-yl]-N-cyclopropyl-4-methyl benzamide added to SoC (systemic corticosteroids and/or antibiotics) versus placebo added to SoC in subjects with severe acute exacerbations of asthma. The proposed doses take into account trough levels based on PK modelling to ensure that the drug rapidly achieves and remains at effective concentrations between doses.
Overall, a dose-dependent reduction in TNF-α levels has been observed following doses ranging from 0.1 to 75 mg 3-[5-amino-4-(3-cyanobenzoyl)-pyrazol-1-yl]-N-cyclopropyl-4-methylbenzamide, although flattening of this effect to between 45 to 50% of placebo levels occurred between doses of 30 and 75 mg. A number of PK studies have been performed looking at both dosing intervals (Days 1, 3 and 5 (FIGS. 1-4, top panels) versus Days 1, 4 and 7 (FIGS. 1-4 bottom panels)), as well as dose levels (approximately 75/40/40 mg (FIG. 1); approximately 75/20/20 (FIG. 2); approximately 40/40/40 mg (FIG. 3); approximately 40/20/20 mg (FIG. 4), etc.). Based on exposures of the various regimens, there is limited benefit in dosing beyond Day 5 for a typical exacerbation.

[2] = Oral bioavailability in the rat; details: in vivo, estimated
[3] = Oral bioavailability in the dog; details: in vivo, estimated
[4] = Oral bioavailability in the monkey; details: in vivo, estimated
[5] = Plasma protein binding, free fraction in human plasma samples; type: in vitro ADME
p38a and p3813 = experiment: Estimated enzyme inhibition from drug levels relative to Ki and IC50
Description: The concentration based on free fraction is at or above 740 nM for the duration of the dosing interval. Cmax is approximately 2 μM based on the first dose.

p38a, sequence (Q16539 whole entry): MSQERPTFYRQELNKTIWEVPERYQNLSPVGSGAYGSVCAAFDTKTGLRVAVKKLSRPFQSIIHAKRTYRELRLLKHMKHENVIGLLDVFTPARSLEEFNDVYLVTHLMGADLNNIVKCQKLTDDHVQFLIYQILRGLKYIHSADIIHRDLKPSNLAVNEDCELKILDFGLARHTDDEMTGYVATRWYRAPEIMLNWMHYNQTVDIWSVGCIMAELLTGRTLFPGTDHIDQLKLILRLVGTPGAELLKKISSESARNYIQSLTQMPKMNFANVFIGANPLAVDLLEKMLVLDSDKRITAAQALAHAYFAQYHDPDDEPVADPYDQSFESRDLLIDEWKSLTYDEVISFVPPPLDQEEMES
p3813, sequence (Q15759 whole entry): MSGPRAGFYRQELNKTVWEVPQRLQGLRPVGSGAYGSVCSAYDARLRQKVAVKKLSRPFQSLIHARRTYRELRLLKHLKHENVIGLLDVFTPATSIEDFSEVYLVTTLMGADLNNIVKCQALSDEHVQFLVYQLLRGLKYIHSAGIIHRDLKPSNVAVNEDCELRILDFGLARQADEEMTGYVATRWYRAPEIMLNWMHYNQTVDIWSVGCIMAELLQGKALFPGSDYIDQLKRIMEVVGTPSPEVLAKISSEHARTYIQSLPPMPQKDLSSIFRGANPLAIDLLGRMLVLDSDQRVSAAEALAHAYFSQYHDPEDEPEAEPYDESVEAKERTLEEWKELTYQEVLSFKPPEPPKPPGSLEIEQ

IC50 (p38a): 37 nM | Ki (p38a): 49 nM | IC50 (p3813): 106 nM | Ki (p3813): 72 nM | drug levels maintained ([1]; dosing at Day 1, 3 and 5): above 220 ng/mL | plasma concentration ([1]; dosing at Day 1, 3 and 5): 5700 nM | concentration based on free fraction ([1]; for the duration of the dosing interval): ≥ 740 nM | Cmax ([1]; human, plasma, oral, based on the first dose): ~2000 nM | bioavailability [2]: 93% | bioavailability [3]: 87% | bioavailability [4]: 90% | fraction unbound [5]: 0.13 to 0.25 | duration of >99% enzyme inhibition (p38a and p3813): 6 days | enzyme inhibition (p38a and p3813): > 99%
SMILES: Cc1ccc(C(=O)NC2CC2)cc1-n1ncc(C(=O)c2cccc(C#N)c2)c1N [3-[5-amino-4-(3-cyanobenzoyl)-pyrazol-1-yl]-N-cyclopropyl-4-methylbenzamide]
